Measurements published in ChEMBL document CHEMBL1128700 (J Med Chem, 1995).

Key:
[1] = biological target: Human immunodeficiency virus type 1 reverse transcriptase (Human immunodeficiency virus 1) (UniProt Q72547); experiment: Percent inhibitory activity against wild type (WT) HIV type I reverse transcriptase at a concentration of 1 uM
[2] = system: Human immunodeficiency virus type 1 reverse transcriptase (Human immunodeficiency virus 1), Q72547 [Y181C]; experiment: Percent inhibitory activity against Y181C HIV type I reverse transcriptase at a concentration of 1 uM
[3] = biological target: Human immunodeficiency virus type 1 reverse transcriptase (Human immunodeficiency virus 1, UniProt Q72547); experiment: Compound was evaluated for inhibition of WT HIV type I reverse transcriptase.
[4] = biological target: Human immunodeficiency virus type 1 reverse transcriptase (Human immunodeficiency virus 1, UniProt Q72547, Y181C); experiment: Compound was evaluated for inhibition of Y181C HIV type I reverse transcriptase.
[5] = system: Human immunodeficiency virus type 1 reverse transcriptase (Human immunodeficiency virus 1), Q72547 [Y181C]; conditions: 10 uM
Description: Percent inhibitory activity against Y181C HIV type I reverse transcriptase at a concentration of 10 uM

SMILES | inhibition [1] | inhibition [2] | IC50 [3] | IC50 [4] | inhibition [5]
O=C1Nc2c(COCc3ccccc3)ccnc2N(C2CC2)c2ncccc21 | 67% | 37% | 270 nM |  | 
O=C1Nc2c(CN3CCCC3)ccnc2N(C2CC2)c2ncccc21 | 51% | 16% | 700 nM |  | 
O=C1Nc2c(CSc3ccccc3)ccnc2N(C2CC2)c2ncccc21 | 44% | 14% | 1030 nM |  | 
CCOCc1ccnc2c1NC(=O)c1cccnc1N2C1CC1 | 41% | 29% | 1300 nM |  | 
O=C1Nc2c(COc3ccc([N+](=O)[O-])cc3)ccnc2N(C2CC2)c2ncccc21 | 43% | 12% | 1130 nM |  | 
CCN1c2ncccc2C(=O)Nc2c(Cc3ccccc3)cc(-c3cccc(OC)c3)nc21 | 20% | 15% |  |  | 
CCN1c2ncccc2C(=O)Nc2c(C=O)cc(-c3cccc(OC)c3)nc21 | 71% | 63% | 330 nM | 420 nM | 
Cc1ccc(Cc2ccnc3c2NC(=O)c2cccnc2N3C2CC2)c(O)c1 | 76% | 29% | 200 nM |  | 
O=C1Nc2c(COc3ccccc3)ccnc2N(C2CC2)c2ncccc21 | 78% | 26% | 120 nM | 2580 nM | 
Cc1ccc(OCc2ccnc3c2NC(=O)c2cccnc2N3C2CC2)cc1 | 55% | 33% | 580 nM |  | 
C=Cc1ccnc2c1NC(=O)c1cccnc1N2C1CC1 | 83% | 16% | 110 nM |  | 
O=C(O)CCc1ccnc2c1NC(=O)c1cccnc1N2C1CC1 | 2% | 8% |  |  | 
C=CCOCc1ccnc2c1NC(=O)c1cccnc1N2C1CC1 | 35% | 29% | 1410 nM |  | 
CCN1c2ncccc2C(=O)Nc2c(COCc3ccccc3)cc(-c3cccc(OC)c3)nc21 | 0% | 12% |  |  | 
CCN1c2ncccc2C(=O)Nc2c(C3OCCCO3)cc(O)nc21 | 0% | 0% |  |  | 
O=C1Nc2c(CC3=CCNC3)ccnc2N(C2CC2)c2ncccc21 | 54% | 26% | 640 nM |  | 
Cc1ccnc2c1NC(=O)c1cccnc1N2C1CC1 | 85% |  |  |  | 59%
CCN1c2ncccc2C(=O)Nc2c(COCc3ccccc3)cc(O)nc21 | 83% | 38% |  |  | 
O=C1Nc2c(CCc3ccccc3)ccnc2N(C2CC2)c2ncccc21 | 36% | 38% |  |  | 
O=C1Nc2c(CN3CCOCC3)ccnc2N(C2CC2)c2ncccc21 | 50% | 21% | 1030 nM |  | 

SMILES | inhibition [1] | inhibition [2] | IC50 [3] | IC50 [4] | inhibition [5]
CCN1c2ncccc2C(=O)Nc2c(CO)cc(O)nc21 | 51% | 25% | 420 nM |  | 
O=C1Nc2c(CNc3ccccc3)ccnc2N(C2CC2)c2ncccc21 | 87% | 41% | 60 nM | 1370 nM | 
CCOC(=O)/C=C/c1ccnc2c1NC(=O)c1cccnc1N2C1CC1 | 27% | 22% |  |  | 
CCN1c2ncccc2C(=O)Nc2c(CO)cc(OC)nc21 | 89% | 24% | 50 nM |  | 
CCNc1ccc(OCc2ccnc3c2NC(=O)c2cccnc2N3C2CC2)cc1 | 88% | 58% | 80 nM | 430 nM | 
CCN1c2ncccc2C(=O)Nc2c(Cc3ccccc3)cc(O)nc21 | 67% | 42% |  |  | 
O=C1Nc2c(Cc3ccccc3)ccnc2N(C2CC2)c2ncccc21 | 73% | 8% | 140 nM |  | 
CCN1c2ncccc2C(=O)Nc2c(COc3ccccc3)cc(OC)nc21 | 44% | 17% | 4000 nM |  | 
COc1ccc(OCc2ccnc3c2NC(=O)c2cccnc2N3C2CC2)cc1 | 47% | 41% | 1040 nM |  | 
Cc1cccc(OCc2ccnc3c2NC(=O)c2cccnc2N3C2CC2)c1 | 38% | 9% | 2430 nM |  | 
CCN1c2ncccc2C(=O)Nc2c(C3OCCCO3)cc(OC)nc21 | 52% | 22% | 800 nM |  | 
Nc1ccc(OCc2ccnc3c2NC(=O)c2cccnc2N3C2CC2)cc1 | 91% | 49% | 100 nM | 1010 nM | 
CCN1c2ncccc2C(=O)Nc2c(COc3ccccc3)cc(O)nc21 | 33% | 20% |  |  | 
O=C1Nc2c(Cn3cccn3)ccnc2N(C2CC2)c2ncccc21 | 36% | 5% | 2200 nM |  | 
CCN1c2ncccc2C(=O)Nc2c(COc3ccccc3)cc(-c3cccc(OC)c3)nc21 | 69% | 37% | 490 nM |  | 
CCN1c2ncccc2C(=O)Nc2c(COCc3ccccc3)cc(=O)[nH]c21 |  |  | 110 nM | 1070 nM | 
O=C1Nc2c(CN3CCCCC3)ccnc2N(C2CC2)c2ncccc21 | 29% | 20% |  |  | 
O=C1Nc2c(COCCc3ccccc3)ccnc2N(C2CC2)c2ncccc21 | 55% | 28% | 420 nM |  | 
O=C1Nc2c(COCCCc3ccccc3)ccnc2N(C2CC2)c2ncccc21 | 29% | 20% |  |  | 
N#Cc1ccc(OCc2ccnc3c2NC(=O)c2cccnc2N3C2CC2)cc1 | 57% | 11% | 410 nM |  | 

SMILES | inhibition [1] | inhibition [2] | IC50 [3] | IC50 [4] | inhibition [5]
O=C(O)/C=C/c1ccnc2c1NC(=O)c1cccnc1N2C1CC1 | 0% | 0% |  |  | 
O=C1Nc2c(/C=C/c3ccccc3)ccnc2N(C2CC2)c2ncccc21 | 23% | 25% |  |  | 
COc1ccc(O)c(Cc2ccnc3c2NC(=O)c2cccnc2N3C2CC2)c1 | 42% | 47% | 850 nM |  | 
CCN1c2ncccc2C(=O)Nc2c(C3OCCCO3)cc(-c3cccc(OC)c3)nc21 | 40% | 7% |  |  | 
CCN1c2ncccc2C(=O)Nc2c(C=O)cc(OC)nc21 | 78% | 38% | 240 nM |  | 
O=C1Nc2c(Cn3ccnc3)ccnc2N(C2CC2)c2ncccc21 | 13% | 20% |  |  | 
CCN1c2ncccc2C(=O)Nc2c(C=O)cc(O)nc21 | 36% | 6% |  |  | 
CCN1c2ncccc2C(=O)Nc2c(COCc3ccccc3)cc(OC)nc21 | 42% | 26% | 920 nM |  | 
Cc1ccccc1OCc1ccnc2c1NC(=O)c1cccnc1N2C1CC1 | 65% | 28% | 290 nM |  | 
CCN1c2ncccc2C(=O)Nc2c(CO)cc(-c3cccc(OC)c3)nc21 | 16% | 0% |  |  | 
CCN1c2ncccc2C(=O)Nc2c(Cc3ccccc3)cc(OC)nc21 | 0% | 0% |  |  | 
O=C1Nc2c(COc3ccccc3Cl)ccnc2N(C2CC2)c2ncccc21 | 30% | 20% | 3050 nM |  | 
O=C1Nc2c(CSCc3ccccc3)ccnc2N(C2CC2)c2ncccc21 | 33% | 28% |  |  | 
CCN1c2ncccc2C(=O)Nc2c(Cc3ccccc3)cc(=O)[nH]c21 |  |  | 340 nM | 1300 nM | 
CCOC(=O)CCc1ccnc2c1NC(=O)c1cccnc1N2C1CC1 | 13% | 11% |  |  | 
O=C1Nc2c(COc3ccccc3O)ccnc2N(C2CC2)c2ncccc21 | 59% | 42% | 460 nM |  | 
O=C1Nc2c(CO)ccnc2N(C2CC2)c2ncccc21 | 34% | 4% |  |  | 
O=C1Nc2c(Cc3ccccc3O)ccnc2N(C2CC2)c2ncccc21 | 75% | 50% | 190 nM | 1120 nM | 
